# Reference: US20110212100A1, “METHODS FOR MODULATING DEVELOPMENT AND EXPANSION OF IL-17 EXPRESSING CELLS” (priority 2007, published 2011)
# Key:
# primary T cells = type: cell-based
# Method: The non-specific cytoxicity of HF in both normal and transformed T-cells at high doses was evaluated. Anti-CD3/anti-CD28 activated primary T cells were harvested 6 days after activation and cultured in the presence of IL-2 with or without HF (100 nM). As a positive control, some T cells were cultured without IL-2 to induce apoptosis (FIG. 3A). Jurkat T cells, a transformed T cell leukemia line, were cultured in complete medium with or without HF (100 nM) as indicated (FIG. 3B). Both primary and Jurkat T cells were cultured for 30 hours and programmed cell death, i.e. apoptosis, was determined by Annexin V staining and propidium iodide (PI) uptake and cells were analyzed by flow cytometry. The percent of apoptotic T cells at each time point was plotted and was defined as Annexin V^+ PI^−. […] In further experiments, titrating amounts of HF were added to primary T cells and apoptosis was determine as above at the indicated time points. At 100 nM HF, but not 30 nM or lower, generalized T-cell apoptosis was observed (FIG. 3C).
# CD4+ CD25− T cells = experiment: CD4+ T cell proliferation, CD25 upregulation, cytokine production and Th1/Th2/iTreg differentiation; type: cell-based, mouse
# Method: The dose-response of HF on CD4+ T cell proliferation, activation (i.e. CD25 upregulation) and differentiation to Th1, Th2 and Th17 lineages were evaluated. Purified murine naïve CD4+ CD25− T cells were activated using anti-CD3 (0.3 μg/ml) and anti-CD28 (0.5 μg/ml) antibodies and varying amounts of HF was added to each T cell culture condition (1.25 nM-40 nM). CD4+ T cell proliferation was monitored by CFSE dilution on day 3-post activation and CD25 expression was evaluated by FACS staining 2 days after activation. For T cell differentiation experiments, naïve T cells were activated as above in the presence of Th1 (IL-12 (20 ng/ml) plus anti-IL-4 (10 μg/ml)), Th2 (IL-4 (50 ng/ml) plus anti-IFNγ (0.5 mg/ml)) or Th17 (TGFβ (3 ng/ml) plus IL-6 (30 ng/ml)) polarizing conditions plus titrating amounts of HF (1.25 nM-40 nM) or MAZ1310 (40 nM). The percentage of Th17 cells, (IL-17^+ IFNγ^−) was evaluated on day 3 following activation, whereas the abundance of Th1 cells (IFNγ^+ IL-4) and Th2 cells (IL-4^+ IFNγ^−) was determined 5 days following activation. All cytokine expression was determined by intracellular staining following PMA+Ionomycin+Brefeldin A re-stimulation and all data was normalized to control (MAZ1310)-treated cells. […] Biol., vol. 80:1-8 (2006).
# Cytokines, antibodies and T cell culture: Purified CD4^+ CD25^− T cells were activated in vitro as previously described (I. M. Djuretic et al., Nat Immunol 8, 145 (2007)) using 0.3 μg/ml hamster anti-mouse CD3 (clone 145-2C11) (ATCC—Manassas, Va.) and 0.5 μg/ml hamster anti-mouse CD28 (BD Pharmingen, San Jose, Calif.). Activated cell cultures were differentiated using the following combinations of cytokines and antibodies: iTreg=recombinant human TGFβ1 (3 ng/ml; R&D systems, Minneapolis, Minn.), Th17βTGFβ1 (3 ng/ml) plus recombinant mouse IL-6 (30 ng/ml, R&D systems). Th1 and Th2 differentiation was performed as previously described. (I. M. Djuretic et al., Nat Immunol 8, 145 (2007)). Human IL-2 supernatant (National Cancer Institute) was used in culture at 0.01 U/ml and was added at 48 hours-post activation when T cells were split into tissue culture wells lacking CD3 and CD28 antibodies, with the exception of Th17 cultures that were maintained in the absence of IL-2. All reagents were added at the time of T cell activation and again at 48-hours post activation unless indicated otherwise. For some experiments, purified CD4^+ CD25^− T cells, CD8^+ T cells or B cells were labeled with 1 μM CFSE (Invitrogen) prior to activation in accordance with manufacturers instructions.
# Detection of cytokine production: Cytokines secreted into media supernatant were measured using the mouse Th1/Th2 cytometric bead array (CBA, BD Pharmingen) in accordance with manufacturers instructions. […]
# T-cells and fibroblasts = experiment: Effects on pro-inflammatory and pro-fibrotic gene expression in T-cells and fibroblasts in vitro; type: cell-based
# Method: (§1) At concentrations over 80 nM, HF has a variety of non-specific effects on both T-cells and fibroblasts. […] At the recommended tolerated dose for chronic treatment (0.5 mg/day), plasma levels of HF were ˜0.5 ng/ml (1 nM). (de.Jonge et al., Eur J Cancer, vol. 42(12):1768-74 (2006)).
# In T-cells and fibroblasts in vitro, HF has highly specific effects on pro-inflammatory and pro-fibrotic gene expression in a dose range of ˜2-40 nM. At doses>80 nM, non-specific effects on protein synthesis and cell proliferation are seen. The compositions are formulated to deliver a dosage of HF that will have specific effects on pro-inflammatory cytokine expression or ECM architecture in the 2-40 nM range, but keep the dosage below levels that can cause non-specific effects.
# cultured fibroblasts = experiment: Non-specific effects on cultured fibroblasts; type: cell-based
# Method: as §1
smiles,measurement,setting,value
"O=C(CC1NCCCC1O)Cn1cnc2cc(Br)c(Cl)cc2c1=O (racemic) [HF, 7-bromo-6-chloro-3-[3-(3-hydroxy-2-piperidinyl)-2-oxopropyl]-4(3H)-quinazolinone]",concentration at which generalized T-cell apoptosis was not observed,primary T cells,≤ 30 nM
same,concentration at which generalized T-cell apoptosis was observed,primary T cells,100 nM
same,"concentration inducing general inhibition of T and B cell activation, proliferation and effector function","CD4+ CD25− T cells; CD4+ T cell, CD8+ T cell and B220+ B cell, listed as halofuginone",20 to 40 nM
same,"effect on T cell proliferation, CD25 upregulation or production of IL-2, TNF or IFNγ, in words",CD4+ CD25− T cells; low concentrations of HF (1-10 nM),did not affect
same,"effect on Th1, Th2 or iTreg differentiation (IFNγ, IL-4 or Foxp3 expression), in words",CD4+ CD25− T cells; low-dose HF,failed to modulate
same,dose range of highly specific effects on pro-inflammatory and pro-fibrotic gene expression,T-cells and fibroblasts,2 to 40 nM
same,concentration inhibiting protein synthesis and cell proliferation in fibroblast culture,cultured fibroblasts,over 80 nM
same,"signaling downstream of mTOR in fibroblasts, in words",cultured fibroblasts,did not inhibit signaling downstream of mTOR
same,"death of cultured fibroblasts, in words",cultured fibroblasts; doses up to 500 nM over 5 days,"does not, however, cause death"
